Results taken from PMC6010071, “Blocking oestradiol synthesis pathways with potent and selective coumarin derivatives” (Journal of Enzyme Inhibition and Medicinal Chemistry, 2018).
Where two headings read alike, the source gives them in different places.

Tests used:
Assay type in all cases: biochemical
[1] = molecular target: T1, MAO-A (Homo sapiens, UniProt P21397); experiment: MAO-A inhibition, continuous spectrophotometric assay; details: read-out: MAO-A inhibition at 100 µM
T1 construct: purchased Sigma-Aldrich (St. Louis, MO)
T1 sequence (P21397 1-527): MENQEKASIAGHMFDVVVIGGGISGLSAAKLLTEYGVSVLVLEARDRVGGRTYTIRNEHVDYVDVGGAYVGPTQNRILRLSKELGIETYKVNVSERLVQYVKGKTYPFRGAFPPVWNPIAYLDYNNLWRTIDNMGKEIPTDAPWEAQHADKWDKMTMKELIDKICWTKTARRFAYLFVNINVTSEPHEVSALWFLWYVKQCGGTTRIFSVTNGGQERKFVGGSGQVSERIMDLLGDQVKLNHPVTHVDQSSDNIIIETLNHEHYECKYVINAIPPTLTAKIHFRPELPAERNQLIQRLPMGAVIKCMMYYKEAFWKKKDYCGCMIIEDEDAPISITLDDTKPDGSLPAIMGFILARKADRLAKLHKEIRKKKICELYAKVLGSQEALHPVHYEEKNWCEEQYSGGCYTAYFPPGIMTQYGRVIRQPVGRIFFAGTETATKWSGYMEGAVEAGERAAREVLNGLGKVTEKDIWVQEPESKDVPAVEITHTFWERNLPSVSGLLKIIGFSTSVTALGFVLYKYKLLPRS
Method: (§1) The protocol of continuous spectrophotometric assay by Holt et al. was first used to determine the activity of the proteins. […] The protein was first incubated for 30 min at 37 °C in the chromogenic solution and then the substrate tyramine was introduced at 0.5 mM final plate concentration completing the assay volume. […] The assay should produce absorbance change of ∼0.35[23]. […] These protein concentrations were selected to be used to analyse the molecules 1–9. The analysis conditions followed the above-described assay protocol[23] and the activity of tested molecules was measured at 100 µM for MAO-A and at 10 µM for MAO-B. The analysis was performed as single point measurements and the signal was read by the same instrument at the expected assay maximum indicated by the activity measurements, at 30 min for MAO-A and at 2 h for MAO-B, respectively. […] The observed activity was calculated as inhibition percentage (Table 1).

[2] = molecular target: T2, Aromatase (CYP19A1), human placental microsomes (Homo sapiens, UniProt P11511); experiment: Aromatase activity, [3H]-H2O release from [3H]-androstenedione; details: 50 nM [3H]-androstenedione; inhibitor 60–1000 nM; read-out: Aromatase inhibition ∼ pIC50 (converted)
T2 construct: by using human placental microsomes; from tissue; host or cells: human placental microsomes
T2 sequence (P11511 1-503): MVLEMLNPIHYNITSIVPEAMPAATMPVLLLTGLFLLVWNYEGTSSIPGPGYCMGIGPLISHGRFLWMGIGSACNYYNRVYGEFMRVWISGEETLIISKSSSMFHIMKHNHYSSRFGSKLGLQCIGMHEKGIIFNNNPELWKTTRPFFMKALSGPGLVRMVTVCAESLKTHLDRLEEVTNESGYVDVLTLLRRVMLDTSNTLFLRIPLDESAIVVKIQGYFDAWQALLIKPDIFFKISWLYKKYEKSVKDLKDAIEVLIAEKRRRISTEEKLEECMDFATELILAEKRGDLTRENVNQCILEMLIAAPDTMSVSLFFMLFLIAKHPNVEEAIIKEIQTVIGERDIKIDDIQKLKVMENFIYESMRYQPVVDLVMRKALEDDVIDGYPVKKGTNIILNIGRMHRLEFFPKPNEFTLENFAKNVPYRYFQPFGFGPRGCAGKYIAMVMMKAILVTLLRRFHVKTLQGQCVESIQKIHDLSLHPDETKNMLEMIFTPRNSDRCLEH
Method: Aromatase (CYP19A1) activity was measured as described previously[22] by using human placental microsomes and 50 nM [3H]-androstenedione as a substrate and inhibitor concentrations in the range of 60–1000 nM. Aromatase activities were measured as released [3H]-H2O in Optiphase Hisafe 2 scintillation liquid (Perkin Elmer, Waltham, MA) with a Wallac 1450 MicroBeta Trilux scintillation counter (Perkin Elmer, Waltham, MA). As a positive control for aromatase inhibition, 1 µM finrozole (generous gift from Olavi Pelkonen, University of Oulu, Finland) was used.

[3] = molecular target: T3, MAO-B (Homo sapiens, UniProt P27338); experiment: MAO-B inhibition, continuous spectrophotometric assay
T3 construct: purchased Sigma-Aldrich (St. Louis, MO)
T3 sequence (P27338 1-520): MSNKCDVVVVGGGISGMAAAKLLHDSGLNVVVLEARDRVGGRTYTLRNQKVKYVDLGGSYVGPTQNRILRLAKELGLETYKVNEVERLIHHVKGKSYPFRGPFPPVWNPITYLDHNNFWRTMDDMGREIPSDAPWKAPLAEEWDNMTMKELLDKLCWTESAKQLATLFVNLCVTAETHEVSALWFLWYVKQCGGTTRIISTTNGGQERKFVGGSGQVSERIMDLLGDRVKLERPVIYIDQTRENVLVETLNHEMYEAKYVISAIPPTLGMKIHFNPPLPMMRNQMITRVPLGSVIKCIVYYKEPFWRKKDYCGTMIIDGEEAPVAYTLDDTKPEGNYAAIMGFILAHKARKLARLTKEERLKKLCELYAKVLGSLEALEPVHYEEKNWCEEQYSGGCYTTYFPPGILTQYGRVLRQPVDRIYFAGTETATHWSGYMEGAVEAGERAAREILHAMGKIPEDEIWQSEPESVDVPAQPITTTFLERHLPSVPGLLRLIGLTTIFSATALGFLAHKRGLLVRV

[4] = molecular target: T3, MAO-B; experiment: as above; details: single point, read at 2 h
Method: as §1

[5] = 100 µM, single point, read at 30 min
[6] = duplicated dilution series, read-out: MAO-B inhibition pIC50 (converted)
[7] = restated from pIC50 above 6, read-out: MAO-B inhibition IC50
[8] = 10 µM, read-out: MAO-B inhibition at 10 µM

Row | inhibition at 100 µM [1, 5] | IC50 [2] | IC50 [3, 6] | IC50 [3, 7] | inhibition at 10 µM [4, 8] | SMILES | inhibition at 100 µM [1] | inhibition at 10 µM ([4]; read-out: MAO-B inhibition at 10 µM, 10 µM)
1 | -11% | > 1000 nM | 851 nM | < 1000 nM |  | COc1ccc2oc(=O)c(-c3ccc(O)c(F)c3)cc2c1 [Compound 7, 3–(3-fluoro-4-hydroxyphenyl)-6-methoxy-2H-chromen-2-one] |  | 
2 | 4% | > 1000 nM |  |  | 48% | COc1ccc(-c2cc3cccc(O)c3oc2=O)cc1 [Compound 1, 8-hydroxy-3–(4-methoxyphenyl)-2H-chromen-2-one] |  | 
3 | 4% | > 1000 nM |  |  | 50% | O=c1oc2ccccc2cc1-c1cccc(O)c1 [Compound 3, 3–(3-hydroxyphenyl)-2H-chromen-2-one] |  | 
4 | -1% | > 1000 nM | 407 nM | < 1000 nM |  | COc1ccc2cc(-c3ccc(O)c(F)c3)c(=O)oc2c1 [Compound 6, 3–(3-fluoro-4-hydroxyphenyl)-7-methoxy-2H-chromen-2-one] |  | 
5 |  | > 1000 nM |  |  | 64% | O=c1oc2ccc(Cl)cc2cc1-c1cccc(O)c1 [Compound 4, 6-chloro-3–(3-hydroxyphenyl)-2H-chromen-2-one] |  | 

Row | SMILES | inhibition at 100 µM [1, 5] | IC50 [2] | IC50 [3, 6] | IC50 [3, 7] | inhibition at 10 µM [4, 8] | inhibition at 100 µM [1] | inhibition at 10 µM ([4]; read-out: MAO-B inhibition at 10 µM, 10 µM)
6 | O=c1oc2ccc(O)cc2cc1-c1ccc(O)cc1 [Compound 2, 6-hydroxy-3–(4-hydroxyphenyl)-2H-chromen-2-one] |  | > 1000 nM |  |  |  | -6% | 16%
